Converted amounts (≈) assume the structure as drawn. The source made the active and inactive calls. The rule behind the calls is not given here.

These results are taken from ChEMBL document CHEMBL1781944, “The discovery of novel benzofuran-2-carboxylic acids as potent Pim-1 inhibitors” (Bioorg Med Chem Lett, 2011).

Series [1] deals with T1, Serine/threonine-protein kinase pim-1 (Homo sapiens, UniProt P11309).
Target sequence in this assay (P11309 whole entry): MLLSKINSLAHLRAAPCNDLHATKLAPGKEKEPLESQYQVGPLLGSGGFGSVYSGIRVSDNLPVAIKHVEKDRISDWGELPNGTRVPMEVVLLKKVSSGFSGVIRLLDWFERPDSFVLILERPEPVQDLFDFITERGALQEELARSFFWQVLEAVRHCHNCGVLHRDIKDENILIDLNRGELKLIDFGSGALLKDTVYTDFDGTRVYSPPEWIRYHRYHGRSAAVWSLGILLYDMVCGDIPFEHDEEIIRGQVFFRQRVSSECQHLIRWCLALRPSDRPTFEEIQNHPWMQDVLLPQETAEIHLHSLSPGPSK
Series [2] has as its target Serine/threonine-protein kinase pim-2 (Homo sapiens, UniProt Q9P1W9).
Another series can be described thus: in vitro. Particulars: human, liver microsomes. A general note: Liver microsomes are a subcellular fraction often used to study metabolism.
The next series addresses Cytochrome P450 2C9 (Homo sapiens, UniProt P11712). Description: Inhibition of CYP2C9 in human liver microsomes. In kind it is ADME, Microsome.
The target in another series is Cytochrome P450 2D6 (Homo sapiens, UniProt P10635). Nature of the series: Inhibition of CYP2D6 in human liver microsomes. In kind it is ADME, Microsome.
Chain of Cytochrome P450 2D6 (P10635 whole entry): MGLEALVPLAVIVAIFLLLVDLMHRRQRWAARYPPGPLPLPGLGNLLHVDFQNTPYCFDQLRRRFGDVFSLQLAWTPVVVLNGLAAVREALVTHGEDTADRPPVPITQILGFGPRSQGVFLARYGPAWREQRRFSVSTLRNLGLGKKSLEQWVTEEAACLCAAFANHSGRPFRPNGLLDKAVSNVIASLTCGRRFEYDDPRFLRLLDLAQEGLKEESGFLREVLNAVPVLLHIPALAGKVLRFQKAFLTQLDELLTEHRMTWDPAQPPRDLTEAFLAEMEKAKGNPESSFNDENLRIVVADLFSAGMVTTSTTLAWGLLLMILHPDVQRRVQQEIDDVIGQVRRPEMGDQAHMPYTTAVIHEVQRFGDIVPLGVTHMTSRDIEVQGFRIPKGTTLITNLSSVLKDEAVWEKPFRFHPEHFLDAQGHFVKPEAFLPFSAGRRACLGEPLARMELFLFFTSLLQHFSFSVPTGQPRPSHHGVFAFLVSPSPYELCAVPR
The nature of series [3]: Intrinsic clearance in rat liver microsomes. In kind it is ADME, Microsome.
The nature of series [4]: Solubility of the compound in phosphate buffered saline buffer at pH 7.4. In kind it is physicochemical.
The next series concerns the target Cytochrome P450 2C19 (Homo sapiens, UniProt P33261). Description: Inhibition of CYP2C19 in human liver microsomes. In kind it is ADME, Microsome.
A further series concerns the target T2, Cytochrome P450 1A2 (Homo sapiens, UniProt P05177).
T2 sequence (P05177 whole entry): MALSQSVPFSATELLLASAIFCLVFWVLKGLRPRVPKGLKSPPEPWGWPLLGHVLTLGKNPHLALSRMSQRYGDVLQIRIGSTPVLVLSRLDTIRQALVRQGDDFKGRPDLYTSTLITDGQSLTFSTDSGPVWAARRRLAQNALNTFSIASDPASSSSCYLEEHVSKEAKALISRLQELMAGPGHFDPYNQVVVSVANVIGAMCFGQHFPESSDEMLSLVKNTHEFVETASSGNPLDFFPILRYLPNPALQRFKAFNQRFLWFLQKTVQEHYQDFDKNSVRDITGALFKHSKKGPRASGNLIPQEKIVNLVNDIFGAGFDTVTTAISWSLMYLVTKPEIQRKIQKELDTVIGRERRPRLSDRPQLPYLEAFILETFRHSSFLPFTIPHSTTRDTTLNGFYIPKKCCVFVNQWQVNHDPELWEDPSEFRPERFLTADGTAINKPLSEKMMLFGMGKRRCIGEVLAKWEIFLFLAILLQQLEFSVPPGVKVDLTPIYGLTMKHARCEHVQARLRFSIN
Description: Inhibition of CYP1A2 in human liver microsomes. In kind it is ADME, Microsome.

The next series addresses Cytochrome P450 3A4 (Homo sapiens, UniProt P08684). Description: Inhibition of CYP3A4 in human liver microsomes. In kind it is ADME, Microsome.
Series [5] addresses T1, Serine/threonine-protein kinase pim-1. Particulars: 25 uM.
Target sequence in this assay (P11309 whole entry, looked up): as the sequence (P11309 whole entry) above

Chain of Cytochrome P450 3A4 (P08684 whole entry): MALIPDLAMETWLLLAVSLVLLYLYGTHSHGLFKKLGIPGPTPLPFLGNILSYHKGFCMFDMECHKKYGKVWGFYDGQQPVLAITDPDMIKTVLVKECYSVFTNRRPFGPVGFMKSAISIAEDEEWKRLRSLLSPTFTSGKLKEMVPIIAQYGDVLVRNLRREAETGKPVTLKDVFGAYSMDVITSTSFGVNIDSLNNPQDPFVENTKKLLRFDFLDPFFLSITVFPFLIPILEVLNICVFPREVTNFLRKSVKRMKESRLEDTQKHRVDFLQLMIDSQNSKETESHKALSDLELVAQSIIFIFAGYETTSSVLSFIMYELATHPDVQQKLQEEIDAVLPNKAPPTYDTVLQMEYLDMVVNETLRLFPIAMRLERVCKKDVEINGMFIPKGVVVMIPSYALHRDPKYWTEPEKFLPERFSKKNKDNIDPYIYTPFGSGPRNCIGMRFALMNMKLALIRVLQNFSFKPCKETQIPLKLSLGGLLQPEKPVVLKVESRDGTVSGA
Chain of Cytochrome P450 2C19 (P33261 whole entry): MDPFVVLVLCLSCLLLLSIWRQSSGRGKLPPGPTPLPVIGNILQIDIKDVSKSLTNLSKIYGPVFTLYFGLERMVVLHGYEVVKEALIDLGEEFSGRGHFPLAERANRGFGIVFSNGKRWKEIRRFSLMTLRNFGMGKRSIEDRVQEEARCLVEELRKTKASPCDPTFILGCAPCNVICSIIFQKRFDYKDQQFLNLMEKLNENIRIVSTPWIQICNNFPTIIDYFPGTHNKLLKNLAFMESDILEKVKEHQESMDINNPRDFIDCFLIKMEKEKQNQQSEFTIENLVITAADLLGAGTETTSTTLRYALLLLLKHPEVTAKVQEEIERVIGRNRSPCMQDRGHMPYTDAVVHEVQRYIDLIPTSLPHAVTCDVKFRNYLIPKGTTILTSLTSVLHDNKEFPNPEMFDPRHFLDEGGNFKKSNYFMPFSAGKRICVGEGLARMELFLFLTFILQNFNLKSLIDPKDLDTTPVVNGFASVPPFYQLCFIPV
Chain of Serine/threonine-protein kinase pim-2 (Q9P1W9 whole entry): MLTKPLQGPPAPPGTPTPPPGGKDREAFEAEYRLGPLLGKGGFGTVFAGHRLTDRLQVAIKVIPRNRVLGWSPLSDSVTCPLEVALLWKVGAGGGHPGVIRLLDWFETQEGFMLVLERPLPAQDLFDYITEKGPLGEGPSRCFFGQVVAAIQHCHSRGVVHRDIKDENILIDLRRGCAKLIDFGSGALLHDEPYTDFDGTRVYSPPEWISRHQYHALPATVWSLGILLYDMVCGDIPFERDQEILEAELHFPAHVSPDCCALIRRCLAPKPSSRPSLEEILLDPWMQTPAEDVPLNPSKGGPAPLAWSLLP
Chain of Cytochrome P450 2C9 (P11712 whole entry): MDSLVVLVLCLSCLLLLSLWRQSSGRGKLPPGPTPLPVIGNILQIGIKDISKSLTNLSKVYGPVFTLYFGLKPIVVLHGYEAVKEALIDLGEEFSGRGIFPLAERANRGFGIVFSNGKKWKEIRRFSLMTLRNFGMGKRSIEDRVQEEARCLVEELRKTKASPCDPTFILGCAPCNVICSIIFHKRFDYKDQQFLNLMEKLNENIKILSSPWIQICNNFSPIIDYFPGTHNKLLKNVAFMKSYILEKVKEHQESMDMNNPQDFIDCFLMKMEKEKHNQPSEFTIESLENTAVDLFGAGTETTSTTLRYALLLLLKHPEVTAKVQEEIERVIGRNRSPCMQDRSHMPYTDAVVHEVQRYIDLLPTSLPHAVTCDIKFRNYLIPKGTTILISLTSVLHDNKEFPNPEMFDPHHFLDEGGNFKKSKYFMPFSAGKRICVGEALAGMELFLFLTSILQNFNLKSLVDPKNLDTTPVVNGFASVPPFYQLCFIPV

A word on the IC50: it is the concentration needed to halve the response being measured. Consider `O=C(O)c1cc2cc(-c3cncc(NC4CCNCC4)n3)ccc2o1`, for which the concentration for half-maximal inhibition (IC50) in [1] is 210 nM; in series [2] it was 150 nM.

Usually microsomal CLint stands for the capacity of the preparation to metabolise the compound, expressed as a volume cleared per time. Read a low microsomal CLint as greater metabolic stability. The solubility is the concentration that dissolves in the medium under given conditions. A higher solubility goes with a readily soluble substance. As to `N[C@H]1CC[C@H](Nc2cc(Br)cc3cc(C(=O)O)oc23)CC1`, the intrinsic metabolic clearance (microsomal CLint) was determined as 11.2 µL/min/mg in the series “in vitro” and 8.1 µL/min/mg in series [3]. The half-inhibitory concentration (IC50) was greater than 10000 nM on Cytochrome P450 2C9; greater than 10000 nM at Cytochrome P450 2D6; greater than 10000 nM at Cytochrome P450 2C19; greater than 10000 nM at Cytochrome P450 1A2; 66 nM in series [2]; greater than 10000 nM on Cytochrome P450 3A4. Also, in series [4], the solubility is greater than 58 µg/mL.

As to `NCCCCNc1nccc(-c2ccc3oc(C(=O)O)cc3c2)n1`, the IC50 was determined as 460 nM in [1] and 590 nM in series [2].

Take `O=C(O)c1cc2cc(-c3cnn(C4CCNCC4)c3)ccc2o1`: the figures for the 50% inhibitory concentration (IC50) in [1] and in series [2] were 6000 nM and 5800 nM, respectively.

Consider `O=C(O)c1cc2cc(Br)cc(C(=O)NC3CCNCC3)c2o1`, for which the half-inhibitory concentration (IC50) in [1] amounted to 980 nM; in [2] it was 7000 nM.

For the compound `N[C@H]1CC[C@H](Nc2cncc(-c3ccc4oc(C(=O)O)cc4c3)n2)CC1`, in [2], the IC50 turned out to be 54 nM. In other words, the double-digit nanomolar range.

Take `N[C@H]1CC[C@@H](Nc2cncc(-c3ccc4oc(C(=O)O)cc4c3)n2)CC1`: the half-maximal inhibitory concentration (IC50) was determined as 200 nM in series [1] and 110 nM in [2].

With `O=C(O)c1cc2cc(Br)cc(C(=O)NCC3CCNCC3)c2o1`, the half-inhibitory concentration (IC50) in series [1] was determined as 2700 nM; in series [2] it was 1300 nM.

With `O=C(CC1CCNCC1)Nc1cc(Br)cc2cc(C(=O)O)oc12`, the concentration for half-maximal inhibition (IC50) in series [1] stood at 55 nM; in series [2], 340 nM.

Turning to `COc1cc(Br)cc2cc(C#N)oc12`, in series [5], the inhibition entry was “inactive”.

For `O=C(O)c1cc2cc(Br)cc(NCCC3CCNCC3)c2o1`, the IC50 in series [1] was found to be 40 nM; in series [2], 540 nM.

Consider `O=C(O)c1cc2cc(Br)cc(NCC3CCNCC3)c2o1`, for which the figures for the microsomal CLint (in “in vitro”; in series [3]) were 9.9 µL/min/mg and 14.1 µL/min/mg, respectively. The concentration for half-maximal inhibition (IC50) against Cytochrome P450 2C9 is greater than 10000 nM; against Cytochrome P450 2D6 it was greater than 10000 nM; in series [1], 20 nM; against Cytochrome P450 2C19, greater than 10000 nM; against Cytochrome P450 1A2 it was greater than 10000 nM; in [2] it was 190 nM. In addition, on Cytochrome P450 3A4, the 50% inhibitory concentration (IC50) is greater than 10000 nM. In series [4], this compound displayed a solubility greater than 58 µg/mL.

On to `O=C(O)c1cc2cc(Br)cc(OCc3ccncc3)c2o1`, for which the results for the IC50 in series [1] and in [2] were 4900 nM and 12500 nM, respectively.

With `O=C(O)c1cc2cc(-c3cnccn3)ccc2o1`, the IC50 in [1] was 7400 nM; in [2], 11900 nM.

Regarding `O=C(O)c1cc2cc(Br)cc(OCCc3ccncc3)c2o1`, the IC50 in series [1] came to 4500 nM; in series [2] it was 21100 nM.

In the case of `O=C(O)c1cc2ccccc2o1`, half-maximal inhibition in series [1] (IC50) was put at 119000 nM.

Consider `O=C(O)c1cc2cc(C(F)(F)F)ccc2o1`, for which the IC50 in series [1] worked out at 5300 nM; in series [2], 13500 nM.

In turn, `O=C(O)c1cc2cc(OC(F)(F)F)ccc2o1` yielded an IC50 in series [1] of 6100 nM.

As for `O=C(O)c1cc2cc(Br)cc(N[C@H]3CC[C@@H](O)CC3)c2o1`, the IC50 in series [1] worked out at 2300 nM; in series [2], 6800 nM.

Turning to `NC[C@H]1CC[C@H](Nc2cncc(-c3ccc4oc(C(=O)O)cc4c3)n2)CC1`, the IC50 in series [1] came out at 53 nM; in [2], 21 nM.

As for `O=C(O)c1cc2cc(Br)cc(N[C@H]3CC[C@H](O)CC3)c2o1`, the IC50 came out at 2400 nM in series [1] and 6100 nM in [2].

As for `O=C(O)c1cc2cc(Br)cc(OCCC3CCNCC3)c2o1`, the half-maximal inhibitory concentration (IC50) in [1] came to 51 nM; in series [2], 350 nM.

For `O=C(O)c1cc2cc(-c3cncc(NC4CNC4)n3)ccc2o1`, the 50% inhibitory concentration (IC50) in series [1] came out at 450 nM; in series [2] it was 100 nM.

Consider `O=C(O)c1cc2cc(Br)cc(OCC3CCCNC3)c2o1` (configuration not stated), for which the IC50 in series [1] stood at 71 nM; in series [2], 350 nM.

On to `Cn1cc(-c2ccc3oc(C(=O)O)cc3c2)cn1`, for which the IC50 in series [1] came out at 5400 nM; in series [2] it was 2900 nM.

As to `N[C@H]1CC[C@@H](Nc2cc(Br)cc3cc(C(=O)O)oc23)CC1`, the intrinsic clearance (microsomal CLint) is 10.2 µL/min/mg in the series “in vitro” and 10 µL/min/mg in series [3]. The IC50 on Cytochrome P450 2C9 was greater than 10000 nM; against Cytochrome P450 2D6, greater than 10000 nM; against Cytochrome P450 2C19, greater than 10000 nM; against Cytochrome P450 1A2, greater than 10000 nM; in series [2], 4 nM; against Cytochrome P450 3A4, greater than 10000 nM. In series [4], this compound yielded a solubility of 20.1 µg/mL (≈ 56.9 µM).

With `O=C(O)c1cc2cc(Br)cc(OCC3CCNCC3)c2o1`, the 50% inhibitory concentration (IC50) in series [1] stood at 60 nM; in series [2], 250 nM.

As for `O=C(O)c1cc2cc(-c3cncc(NCC4CCNCC4)n3)ccc2o1`, the results for the IC50 in series [1] and in series [2] were 380 nM and 160 nM, respectively.

With `O=C(O)c1cc2cc(-c3cccnc3)ccc2o1`, the concentration for half-maximal inhibition (IC50) in [1] is 7800 nM; in [2], 7100 nM.

In the case of `NCCCCNc1ccnc(-c2ccc3oc(C(=O)O)cc3c2)n1`, the IC50 in series [1] stood at 1900 nM; in series [2], 1200 nM.

On to `O=C(O)c1cc2cc(Br)cc(NC(=O)C3CCNCC3)c2o1`, for which the 50% inhibitory concentration (IC50) in series [1] was 150 nM; in series [2] it was 260 nM.

As for `O=C(O)c1cc2cc(Br)cc(OCC(=O)N3CCNCC3)c2o1`, the figures for the IC50 in series [1] and in [2] were 220 nM and 1300 nM, respectively.
